Test results from patent EP4567031A1, “HPK1 INHIBITOR, PREPARATION METHOD THEREFOR, AND USE THEREOF” (Beijing Earthwise Technology Co., Ltd., priority 2022, dated 2024).

Columns and labels:
[1] = target: T1, HPK1 (Homo sapiens, UniProt Q92918); assay: HPK1 ADP-Glo kinase assay; format: biochemical; settings: 40 µM ATP; 5 nM HPK1; MBP protein substrate
Protocol: 1×kinase buffer (40 mM Tris-HCl (pH 7.5), 20 mM MgCl2, 0.1 mg/ml BSA, 0.05 mM DTT), 2 µM MBP protein and 40 µM ATP, […] were included in the reaction mixture. The reaction was initiated by adding 5 nM HPK1. After 60 minutes of reaction, the assay was terminated by adding 5 µL of ADP-Glo™ reagent. After 60 minutes, 10 µL of kinase assay reagent was added. After being incubated at room temperature for 60 minutes, the assay plate was read by EnVision multi-function microplate reader.
(§1) The luminescent signal value was converted to the percentage of inhibition. Inhibition % = (maximum value - sample value) / (maximum value - minimum value)×100. The minimum value refers to the value measured in a well without enzyme but with DMSO and substrate, and the maximum value refers to the value measured in a well with DMSO, enzyme and substrate. IC50 values were calculated by XLFit (version 5.3.1.3) in Excel. Equation: Y = bottom + (top - bottom) / (1 + (IC50/X) ^ HillSlope).

[2] = system: Phospho-SLP-76 (Ser376); assay: Phospho-SLP-76 (Ser376) HTRF assay in Jurkat E6-1 cells; format: cell-based; settings: Homo sapiens, compound 4 hours, then anti-CD3 antibody 20 minutes, read-out: pSLP76, IC50
Protocol: A compound was dissolved in DMSO to 10 mM, and then diluted three-fold with DMSO to 10 dosages in a 96-well plate. Then, 3 µL of the diluted compound sample was transferred to a 96-well plate with 97 µL of cell culture medium, and the plate was shaken for 5 minutes. According to the experimental design diagram, 7.5 µL of the diluted compound sample was transferred to a cell plate. Final concentrations of the compound in this assay were 10000.00, 3333.33, 1111.11, 370.37, 123.46, 41.15, 13.72, 4.57, 1.52 and 0.51 nM.
In this assay, the density of Jurkat E6-1 cells was maintained between 3*10^5 to 3*10^6 cells/mL. The cell culture was replaced with fresh culture medium every 2 to 3 days (depending on the cell density).
30 µL of Jurkat E6-1 (300,000 cells) was added to a 96-well plate and incubated in a 37 °C incubator for 1 hour. Then, according to the experimental design diagram, compounds (6×, 7.5 µL) were added to treat the cells for 4 hours, respectively. After 4 hours, purified anti-human anti-CD3 antibodies (6×, 7.5 µL) were added to treat the cells for 20 minutes. After 20 minutes, 15 µL of cell lysis buffer (4×) was added, and the cells were lysed at 25 °C with shaking (250 rpm) for 1 hour. Then, according to the experimental design diagram, 16 µL of cell lysate was transferred to a 384-well plate using a pipette. After the transfer, 4 µL of antibody detection mixture was added. After being placed at room temperature overnight, the plate was read by EnVision multi-function microplate reader to read the FRET signal (the ratio of HTRF 665/615 was calculated from the readings at 665 nm and 615 nm).
The ratio of the signal at 665 nm to the signal at 615 nm was converted to the percentage of inhibition. Inhibition % = (maximum value - sample value) / (maximum value - minimum value)×100. The minimum value refers to the signal value of a well without anti-CD3 antibody stimulation during the treatment of cells, and the maximum value refers to the signal value of a well with anti-CD3 antibody stimulation but without the compound during the treatment of cells. IC50 values were calculated by XLFit (version 5.3.1.3) in excel. Equation: Y = Bottom + (Top-Bottom) / (1 + (IC50/X) ^ HillSlope). Table 4. Results of cellular activity of the compounds

[3] = system: human Pan T cells; assay: Human Pan T cell IL-2 ELISA; format: cell-based; settings: Homo sapiens, T-cell, 48 h, Anti-CD3 and Anti-CD28, supernatant IL-2 ELISA, read-out: IL-2 release, EC50
How it was run: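 Human Pan T cells (1×10^6 cells/ml) stimulated with plate-bound anti-CD3 plus anti-CD28 and treated 48 h with compound at 9 final concentrations, 39.063–10000 nM. Supernatant IL-2 by ELISA, expressed as fold over DMSO wells; EC50 from four-parameter logistic fit.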

[4] = target: T1, HPK1; assay: HPK1 HTRF kinase assay; format: biochemical; settings: 1000 µM ATP; 50 nM HPK1; STK1 substrate; read-out: HPK1, IC50
Protocol: The reaction was initiated by adding 50 nM HPK1. After 120 minutes of reaction, the assay was terminated by adding 10 µL of Detection Mix.
as §1, with “The ratio of the” for “The luminescent”, “signal at 665 nm to the signal at 615 nm” for “signal value”, “= Bottom” for “= bottom”, “+ (Top” for “+ (top”, “- Bottom)” for “- bottom)”

T1 sequence (Q92918 whole entry, species assumed): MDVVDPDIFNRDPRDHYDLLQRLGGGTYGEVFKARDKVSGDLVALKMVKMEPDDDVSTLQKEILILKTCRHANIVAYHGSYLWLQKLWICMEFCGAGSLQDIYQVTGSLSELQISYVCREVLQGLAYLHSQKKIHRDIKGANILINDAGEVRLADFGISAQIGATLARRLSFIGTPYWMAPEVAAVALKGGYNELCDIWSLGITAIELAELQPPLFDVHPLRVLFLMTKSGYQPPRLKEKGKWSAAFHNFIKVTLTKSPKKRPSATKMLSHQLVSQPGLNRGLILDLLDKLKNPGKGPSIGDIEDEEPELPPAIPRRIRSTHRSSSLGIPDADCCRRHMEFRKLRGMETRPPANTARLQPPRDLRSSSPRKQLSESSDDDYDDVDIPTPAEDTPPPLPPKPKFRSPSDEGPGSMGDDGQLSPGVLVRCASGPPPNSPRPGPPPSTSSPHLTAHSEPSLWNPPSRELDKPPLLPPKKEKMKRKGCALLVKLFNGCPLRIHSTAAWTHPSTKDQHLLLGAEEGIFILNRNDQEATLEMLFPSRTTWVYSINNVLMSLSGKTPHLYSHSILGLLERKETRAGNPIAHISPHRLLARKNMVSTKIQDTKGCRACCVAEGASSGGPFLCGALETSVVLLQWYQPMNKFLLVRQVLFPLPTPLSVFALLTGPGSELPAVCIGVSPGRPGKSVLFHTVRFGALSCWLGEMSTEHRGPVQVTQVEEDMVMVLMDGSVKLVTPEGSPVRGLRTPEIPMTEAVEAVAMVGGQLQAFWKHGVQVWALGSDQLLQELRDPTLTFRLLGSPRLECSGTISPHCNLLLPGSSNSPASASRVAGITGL

Row | Compound | IC50 [1] | IC50 [2] | EC50 [3] | IC50 [4]
1 | CC1(C)c2cc(N3CCOCC3)ccc2Nc2c1cc(-c1cnc3c(Cl)cccn13)c1cc[nH]c(=O)c21 [Example 1] | 0.1 nM | 121 nM | – | –
2 | Cc1ccn2c(-c3cc4c(c5c(=O)[nH]ccc35)Nc3ccc(N5CCOCC5)cc3C4(C)C)cnc2c1F [Example 5] | 3.44 nM | – | 10.8 nM | –
3 | Cc1ccn2c(-c3cc4c(c5c(=O)[nH]ccc35)Nc3ccc(N5CCOC(C(C)(C)O)C5)cc3C4(C)C)cnc2c1F (stereo not shown) [Example 6] | – | 164 nM | 13 nM | –
4 | Cc1ccc2c(-c3cc4c(c5c(=O)[nH]ccc35)Nc3ccc(N5CCOC(C(C)(C)O)C5)cc3C4(C)C)cnn2c1 (stereo not shown) [Example 7] | – | 487 nM | – | –
5 | COc1cccc2c(-c3cc4c(c5c(=O)[nH]ccc35)Nc3ccc(N5CCOCC5)cc3C4(C)C)cnn12 [Example 8] | – | 103 nM | 5.5 nM | –
6 | Cc1ccn2c(-c3cc4c(c5c3CNC5=O)Nc3ccc(N5CCOC(C(C)(C)O)C5)cc3C4(C)C)cnc2c1F (stereo not shown) [Example 9] | – | 57.8 nM | 3.09 nM | 20.4 nM
7 | COc1cccn2c(-c3cc4c(c5c3CNC5=O)Nc3ccc(N5CCOCC5)cc3C4(C)C)cnc12 [Example 10] | – | 42.7 nM | – | 8.39 nM
8 | COc1cccn2c(-c3cc4c(c5c3CCNC5=O)Nc3ccc(N5CCOCC5)cc3C4(C)C)cnc12 [Example 13] | – | 24.4 nM | – | –
9 | COc1cccn2c(-c3cc4c(c5c3CNC5=O)Nc3cnc(N5CCOCC5)cc3C4(C)C)cnc12 [Example 14] | – | 197 nM | 49.1 nM | 30.3 nM
10 | COc1cccn2c(-c3cc4c(c5c3CNC5=O)Nc3ccc(N5CCOCC5)nc3C4(C)C)cnc12 [Example 20] | – | 83.6 nM | 11.3 nM | 5.76 nM

More lines, in order of falling IC50 [2], values ahead:

Row | IC50 [1] | IC50 [2] | EC50 [3] | IC50 [4] | Compound
11 | – | 73.3 nM | 13.8 nM | 7.38 nM | Cc1ccn2c(-c3cc4c(c5c3CNC5=O)Nc3ccc(N5CCOCC5)cc3C4(C)C)cnc2c1F [Example 11]
12 | – | 72.2 nM | 3.95 nM | – | COc1cccc2c(-c3nc4c(c5c3CCNC5=O)Nc3ccc(N5CCOCC5)cc3C4(C)C)cnn12 [Example 15]
13 | – | 66 nM | 11.8 nM | 11.7 nM | COc1cccc2c(-c3cc4c(c5c3CNC5=O)Nc3ccc(N5CCOCC5)cc3C4(C)C)cnn12 [Example 18]
14 | 1.7 nM | 64 nM | – | – | COc1cccn2c(-c3cc4c(c5c(=O)[nH]ccc35)Nc3ccc(N5CCOC(C(C)(C)O)C5)cc3C4(C)C)cnc12 (stereo not shown) [Example 2]
15 | – | 58.8 nM | 3.7 nM | 24.8 nM | COc1ccnn2c(-c3cc4c(c5c3CNC5=O)Nc3ccc(N5CCOCC5)cc3C4(C)C)cnc12 [Example 31]
16 | 0.3 nM | 57.5 nM | 38 nM | – | COc1cccn2c(-c3cc4c(c5c(=O)[nH]ccc35)Nc3ccc(N5CCOCC5)cc3C4(C)C)cnc12 [Example 3]
17 | – | 56.9 nM | 3.72 nM | 6.31 nM | CC1(C)c2cc(N3CCOCC3)ccc2Nc2c1cc(-c1cnn3c(C#N)cccc13)c1c2C(=O)NC1 [Example 17]
18 | – | 38.1 nM | 4.61 nM | – | CC1(C)c2cc(N3CCOCC3)ccc2Nc2c1cc(-c1cnn3cccnc13)c1cc[nH]c(=O)c21 [Example 4]
19 | – | 37 nM | 8.32 nM | – | COc1cccc2c(-c3cc4c(c5c3CNC5=O)Nc3ncc(N5CCOCC5)cc3C4(C)C)cnn12 [Example 21]
20 | – | 31.6 nM | 6.81 nM | 2.85 nM | CC1(C)c2cc(N3CCOCC3)ccc2Nc2c1cc(-c1cnn3cccnc13)c1c2C(=O)NC1 [Example 16]
21 | – | 25.9 nM | 6.67 nM | 6.99 nM | CC1(C)c2cc(N3CCOCC3)ccc2Nc2c1cc(-c1cnc3cccnn13)c1c2C(=O)NC1 [Example 12]
22 | – | 13.5 nM | 6.09 nM | – | Cn1ccn2c(-c3cc4c(c5c3CNC5=O)Nc3ccc(N5CCOCC5)cc3C4(C)C)cnc2c1=O [Example 41]
